Source: paper PMC10643210, “Expanding structural diversity of 5′-aminouridine moiety of sansanmycin via mutational biosynthesis” (Frontiers in Bioengineering and Biotechnology, 2023)
Converted amounts (≈) assume the structure as drawn.

Tests used:
[1] = tested on: M. tuberculosis M9483; settings: clinical multidrug-resistant isolate; for MIC M. tuberculosis M9483: Alamar blue, 7H9 broth, triplicate wells
[2] = tested on: M. tuberculosis M3551; settings: clinical multidrug-resistant isolate; for MIC M. tuberculosis M3551: Alamar blue, 7H9 broth, triplicate wells
[3] = tested on: M. tuberculosis M6600; settings: clinical multidrug-resistant isolate; for MIC M. tuberculosis M6600: Alamar blue, 7H9 broth, triplicate wells

Compound: NNC(=O)c1ccncc1 [INH, isoniazid]
- M. tuberculosis M9483, resistant/sensitive class of control drugs [1]: R
- M. tuberculosis M3551, resistant/sensitive class of control drugs [2]: R
- M. tuberculosis M6600, resistant/sensitive class of control drugs [3]: R

Compound: CC(=O)NC[C@H]1CN(c2ccc(N3CCOCC3)c(F)c2)C(=O)O1 [LZD, linezolid]
- M. tuberculosis M9483, resistant/sensitive class of control drugs [1]: S (sensitive to LZD, at 2.0 μg/mL)
- M. tuberculosis M3551, resistant/sensitive class of control drugs [2]: S (sensitive to LZD, at 2.0 μg/mL)
- M. tuberculosis M6600, resistant/sensitive class of control drugs [3]: S (sensitive to LZD, at 2.0 μg/mL)

Compound: CO[C@H]1/C=C/O[C@@]2(C)Oc3c(C)c(O)c4c(O)c(c(/C=N/N5CCN(C)CC5)c(O)c4c3C2=O)NC(=O)/C(C)=C\C=C\[C@H](C)[C@H](O)[C@@H](C)[C@@H](O)[C@@H](C)[C@H](OC(C)=O)[C@@H]1C [RIF, rifampicin]
- M. tuberculosis M9483, resistant/sensitive class of control drugs [1]: R
- M. tuberculosis M3551, resistant/sensitive class of control drugs [2]: R
- M. tuberculosis M6600, resistant/sensitive class of control drugs [3]: R

Compound: CSCC[C@H](NC(=O)N[C@@H](Cc1c[nH]c2ccccc12)C(=O)O)C(=O)N[C@H](C(=O)N/C=C1/C[C@@H](O)[C@H](n2ccc(=O)[nH]c2=O)O1)[C@H](C)N(C)C(=O)[C@@H](N)Cc1cccc(O)c1 [SS-A, sansanmycin A]
- MIC M. tuberculosis M9483 [1]: 16 µg/mL (≈ 18.5 µM)
- MIC M. tuberculosis M3551 [2]: 16 µg/mL (≈ 18.5 µM)
- MIC M. tuberculosis M6600 [3]: 16 µg/mL (≈ 18.5 µM)

Compound: CSCC[C@H](NC(=O)N[C@@H](Cc1c[nH]c2ccccc12)C(=O)O)C(=O)N[C@H](C(=O)NC[C@H]1O[C@@H](n2ccc(=O)[nH]c2=O)C[C@@H]1O)[C@H](C)N(C)C(=O)[C@@H](N)Cc1cccc(O)c1 [SS-KK-1]
- MIC M. tuberculosis M9483 [1]: >64 µg/mL
- MIC M. tuberculosis M3551 [2]: >64 µg/mL
- MIC M. tuberculosis M6600 [3]: >64 µg/mL

Compound: CSCC[C@H](NC(=O)N[C@@H](Cc1c[nH]c2ccccc12)C(=O)O)C(=O)N[C@H](C(=O)NC[C@H]1O[C@@H](n2ccc(=O)[nH]c2=O)C[C@@H]1O)[C@H](C)N(C)C(=O)[C@@H](N)Cc1ccc(O)cc1 [SS-KK-2]
- MIC M. tuberculosis M9483 [1]: 32 µg/mL (≈ 37 µM)
- MIC M. tuberculosis M3551 [2]: 64 µg/mL (≈ 73.9 µM)
- MIC M. tuberculosis M6600 [3]: 64 µg/mL (≈ 73.9 µM)
